Experiment [1] has as its target T1, Alpha-1A adrenergic receptor (Homo sapiens, UniProt P35348).
T1 sequence (P35348 whole entry): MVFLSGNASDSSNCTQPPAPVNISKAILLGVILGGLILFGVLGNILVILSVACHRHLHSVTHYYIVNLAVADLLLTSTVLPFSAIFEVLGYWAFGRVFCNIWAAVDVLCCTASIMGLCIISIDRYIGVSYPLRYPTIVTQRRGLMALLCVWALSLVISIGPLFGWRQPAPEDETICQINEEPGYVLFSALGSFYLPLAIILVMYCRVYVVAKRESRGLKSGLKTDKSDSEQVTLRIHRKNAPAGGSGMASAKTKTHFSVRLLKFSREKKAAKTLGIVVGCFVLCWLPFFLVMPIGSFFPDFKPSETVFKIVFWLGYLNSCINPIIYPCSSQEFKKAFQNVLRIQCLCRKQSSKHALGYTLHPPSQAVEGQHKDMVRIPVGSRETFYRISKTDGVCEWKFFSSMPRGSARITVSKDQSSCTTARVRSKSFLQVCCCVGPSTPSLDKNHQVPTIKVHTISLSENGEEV

In experiment [2] the target is T2, Alpha-1B adrenergic receptor (Mus musculus, UniProt Q05D47).
T2 sequence (Q05D47 whole entry): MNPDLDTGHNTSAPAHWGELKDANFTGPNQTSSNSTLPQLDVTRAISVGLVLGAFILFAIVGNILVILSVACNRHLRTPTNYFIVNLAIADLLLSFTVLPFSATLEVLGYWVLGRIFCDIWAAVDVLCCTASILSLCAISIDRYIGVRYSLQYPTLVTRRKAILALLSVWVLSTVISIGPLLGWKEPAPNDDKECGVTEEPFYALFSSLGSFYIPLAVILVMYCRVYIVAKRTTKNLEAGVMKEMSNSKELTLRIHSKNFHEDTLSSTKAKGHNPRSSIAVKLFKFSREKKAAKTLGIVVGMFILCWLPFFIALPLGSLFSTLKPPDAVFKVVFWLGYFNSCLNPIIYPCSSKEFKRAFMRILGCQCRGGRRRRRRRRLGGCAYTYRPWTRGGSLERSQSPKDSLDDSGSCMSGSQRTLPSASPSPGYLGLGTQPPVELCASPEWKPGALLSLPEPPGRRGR

Consider six compounds from BindingDB's records for doi:10.1021/jm0503751 (University of Dublin, 2006).

For `COc1ccccc1N1CCN(CCCNc2c(C)c(=O)n(C)c(=O)n2C)CC1` [Urapidil-5-methyl], the results for the Ki in experiment [1] and in experiment [2] were 10 nM and 40 nM, respectively.

`COc1cc2nc(N3CCN(C(=O)C4CCCO4)CC3)nc(N)c2cc1OC` (centres undefined) [6,7-dimethoxy-2-[4-(tetrahydrofuran-2-ylcarbonyl)piperazin-1-yl]quinazolin-4-amine]: the Ki (usually a dissociation constant, usually derived from enzyme kinetics or from competition with a known ligand) in experiment [2] was found to be 2 nM.

In experiment [2], `COc1cc2nc(N3CCN(C(=O)C4COc5ccccc5O4)CC3)nc(N)c2cc1OC` (centres undefined) [UK 33,274] showed a Ki of 1 nM.

Regarding `CC(C)(Cc1c[nH]c2ccc(Cl)cc12)NCCOc1ccccc1OCC1CC1`, the inhibition constant Ki in experiment [1] and in experiment [2] was 16 nM in each case.

Regarding `COc1cc2nc(N(C)CCCNC(=O)C3CCCO3)nc(N)c2cc1OC` (centres undefined) [N-{3-[(4-amino-6,7-dimethoxyquinazolin-2-yl)(methyl)amino]propyl}tetrahydrofuran-2-carboxamide], in experiment [2], the Ki is 10 nM.

In the case of `Cc1c[nH]c(=O)n(CCCN2CCN(c3ccc(F)cc3OCC(F)(F)F)CC2)c1=O`, the Ki in experiment [1] worked out at 100 nM; in experiment [2] it was 79 nM.
